The values below come from US20230381321A1, “CAMPTOTHECIN CONJUGATES” (priority 2022, published 2023).

Where two headings read alike, the source gives them in different places.

Assay type in all cases: cell-based
Test [1] concerns anaplastic large cell lymphoma cells (DELBVR). The test is described as follows: In vitro potency (CellTiter-Glo, 96 h) on DELBVR. The conditions noted are these: read-out: DELBVR IC50. The procedure, abridged:
(§1)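 Cells authenticated by STR profiling and used within 2 months of resuscitation are seeded in RPMI 1640 containing 20% FBS for 24 hours; […] dilutions in medium are added and incubation runs 4 days before a luminescence read.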

The test system of test [2] is non-small-cell lung cancer cells (Calu1). Nature of the test: In vitro potency (CellTiter-Glo, 96 h) on Calu1. The conditions noted are these: read-out: Calu1 IC50. In a few lines: as §1
(In general: In ATP-based viability assays light output follows the ATP content of the culture.)

The test system of the next test is melanoma cells (A2058). Nature of the test: In vitro potency (CellTiter-Glo, 96 h) on A2058. The note with it: read-out: A2058 IC50. The procedure, abridged:
as §1

The subject of test [3] is acute myeloid leukemia cells (MOLM-13). The test is described as follows: In vitro potency (CellTiter-Glo, 96 h) on MOLM-13. The note with it: read-out: MOLM-13 IC50. The procedure, abridged:
as §1

In test [4] the test system is anaplastic large cell lymphoma cells (DEL). Nature of the test: In vitro potency (CellTiter-Glo, 96 h) on DEL. The conditions noted are these: read-out: DEL IC50. In a few lines: as §1
The test system of test [5] is Hodgkin's lymphoma cells (L540cy). The test is described as follows: In vitro potency (CellTiter-Glo, 96 h) on L540cy. The note with it: read-out: L540cy IC50. In a few lines:
as §1

In test [6] the test system is pancreatic cancer cells (BxPC3). Nature of the test: In vitro potency (CellTiter-Glo, 96 h) on BxPC3. The conditions noted are these: read-out: BxPC3 IC50. The procedure, abridged: as §1
In test [7] the test system is B-lymphocyte cancer cells (SU-DHL4). Nature of the test: In vitro potency (CellTiter-Glo, 96 h) on SU-DHL4. The conditions noted are these: read-out: SU-DHL-4 IC50. The procedure, abridged: as §1
Test [8] is described as follows: In vitro potency (CellTiter-Glo, 96 h) on Ls174T. The note with it: read-out: Ls174T IC50. In a few lines: as §1
Test [9] deals with breast cancer cells (MDA-MB-231). The test is described as follows: In vitro potency (CellTiter-Glo, 96 h) on MDA-MB-231. The conditions noted are these: read-out: MDAMB 231 IC50. In a few lines:
as §1

Test [10] concerns anaplastic large cell lymphoma cells (Karpas299). The test is described as follows: In vitro potency (CellTiter-Glo, 96 h) on Karpas299. The note with it: read-out: Karpas299 IC50. In a few lines:
as §1

Test [11] relates to renal carcinoma cells (786-O). Nature of the test: In vitro potency (CellTiter-Glo, 96 h) on 786-O. The note with it: read-out: 786-O IC50. The procedure, abridged: as §1
Where [12] appears, read: 96 h, CPT free drugs, CellTiter-Glo after 96 h exposure.
Setting [13] is: Homo sapiens, Calu-1, 96 h, CPT free drugs, CellTiter-Glo after 96 h exposure.
[14] abbreviates: Homo sapiens, A2058, 96 h, CPT free drugs, CellTiter-Glo after 96 h exposure.
[15] abbreviates: Homo sapiens, MOLM-13, 96 h, CPT free drugs, CellTiter-Glo after 96 h exposure.
Setting [16] is: L540cy, 96 h, CPT free drugs, CellTiter-Glo after 96 h exposure.
The mark [17] stands for this setting: Homo sapiens, BXPC-3, 96 h, CPT free drugs, CellTiter-Glo after 96 h exposure.
The mark [18] stands for this setting: Homo sapiens, SU-DHL-4, 96 h, CPT free drugs, CellTiter-Glo after 96 h exposure.
The mark [19] stands for this setting: Homo sapiens, LS174T, CPT free drugs, CellTiter-Glo after 96 h exposure.
The mark [20] stands for this setting: Homo sapiens, MDA-MB-231, 96 h, CPT free drugs, CellTiter-Glo after 96 h exposure.
Where [21] appears, read: Homo sapiens, KARPAS-299, 96 h, CPT free drugs, CellTiter-Glo after 96 h exposure.
[22] abbreviates: Homo sapiens, 786-0, 96 h, CPT free drugs, CellTiter-Glo after 96 h exposure.
The mark [23] stands for this setting: CPT free drugs, CellTiter-Glo after 96 h exposure.

One may read the IC50 as the concentration that inhibits the measured activity by half. Take `C/C=C(\C)c1c(C)c(F)cc2nc3c(c(CN)c12)Cn1c-3cc2c(c1=O)COC(=O)[C@]2(O)CC` [Compound 6a]: the IC50 in test [1] (setting [12]) is 3 nM; in test [2] (setting [13]), 21 nM; in the test on melanoma cells (A2058) (setting [14]), 5 nM; in [3] (setting [15]), 4 nM; in test [4] (setting [12]) it was 2 nM; in test [5] (setting [16]), 4 nM. Also, the IC50 in test [6] (setting [17]) was determined as 8 nM; in [7] (setting [18]), 2 nM; in test [8] (setting [19]) it was 12 nM; in test [9] (setting [20]), 7 nM; in test [10] (setting [21]) it was 5 nM; in [11] (setting [22]), 6 nM.
With `CC[C@@]1(O)C(=O)OCc2c1cc1n(c2=O)Cc2c-1nc1cc(F)c(C)c(-c3ccc(O)cc3)c1c2CN` [Compound 6f], the IC50 in [1] (setting [12]) amounted to 8 nM; in [2] (setting [13]), 294 nM; in the test with melanoma cells (A2058) (setting [14]), 17 nM; in test [3] (setting [15]), 51 nM; in test [4] (setting [12]), 9 nM; in [5] (setting [16]), 23 nM. The half-inhibitory concentration (IC50) in test [6] (setting [17]) was 46 nM; in test [7] (setting [18]), 19 nM; in [8] (setting [19]), over 1000 nM; in [9] (setting [20]), 139 nM; in test [10] (setting [21]), 59 nM; in [11] (setting [22]) it was 97 nM.
As to `CC[C@@]1(O)C(=O)OCc2c1cc1n(c2=O)Cc2c-1nc1cc(F)cc(Br)c1c2CN` [Compound 2aw], the IC50 in [1] (setting [12]) was 15 nM; in test [2] (setting [13]), 269 nM; in the test on melanoma cells (A2058) (setting [14]), 18 nM; in test [3] (setting [15]), 199 nM; in test [4] (setting [12]), 15 nM; in test [5] (setting [16]), 25 nM. Also, the IC50 was 149 nM in test [6] (setting [17]); 22 nM in test [7] (setting [18]); over 1000 nM in test [8] (setting [19]); 456 nM in [9] (setting [20]); 36 nM in test [10] (setting [21]); 58 nM in test [11] (setting [22]).
As for `CC[C@@]1(O)C(=O)OCc2c1cc1n(c2=O)Cc2c-1nc1cc3c(c(F)c1c2CN)CCC3` [Compound 5b], the IC50 in [1] (setting [12]) was 15 nM; in [2] (setting [13]) it was 54 nM; with melanoma cells (A2058) (setting [14]) it was 17 nM; in test [3] (setting [15]), over 1000 nM; in test [4] (setting [12]), 17 nM; in test [5] (setting [16]) it was 10 nM. Further, the IC50 in test [6] (setting [17]) was 128 nM; in [7] (setting [18]), 27 nM; in [8] (setting [19]), 45 nM; in test [9] (setting [20]), 36 nM; in test [10] (setting [21]), 46 nM; in test [11] (setting [22]), 69 nM.
For the molecule `CC[C@@]1(O)C(=O)OCc2c1cc1n(c2=O)Cc2c-1nc1cc(F)c(C)c(-c3cccc(O)c3)c1c2CN` [Compound 6i], the IC50 amounted to 1 nM in test [1] (setting [12]); 26 nM in test [2] (setting [13]); 2 nM with melanoma cells (A2058) (setting [14]); 2 nM in [3] (setting [15]); 1 nM in [4] (setting [12]); 3 nM in [5] (setting [16]). The IC50 came to 10 nM in test [6] (setting [17]); 2 nM in [7] (setting [18]); 10 nM in test [8] (setting [19]); 11 nM in test [9] (setting [20]); 4 nM in [10] (setting [21]); 5 nM in test [11] (setting [22]).
In the case of `CC[C@@]1(O)C(=O)OCc2c1cc1n(c2=O)Cc2c-1nc1cc(F)c(C)c(C=C(C)C)c1c2CN` [Compound 6, (S)-11-(aminomethyl)-4-ethyl-8-fluoro-4-hydroxy-9-methyl-10-(2-methylprop-1-en-1-yl)-1,12-dihydro-14H-pyrano[3′,4′:6,7]indolizino[1,2-b]quinoline-3,14(4H)-dione], the IC50 is 3 nM in test [1] (96 h); 17 nM in [2] (Homo sapiens, Calu-1, 96 h); 5 nM in the test with melanoma cells (A2058) (Homo sapiens, A2058, 96 h); 4 nM in [3] (Homo sapiens, MOLM-13, 96 h); 1 nM in [4] (96 h); 4 nM in [5] (L540cy, 96 h). Also, the IC50 came out at 8 nM in [6] (Homo sapiens, BXPC-3, 96 h); 2 nM in test [7] (Homo sapiens, SU-DHL-4, 96 h); 21 nM in test [8] (Homo sapiens, LS174T, 96 h); 7 nM in [9] (Homo sapiens, MDA-MB-231, 96 h); 4 nM in test [10] (Homo sapiens, KARPAS-299, 96 h); 5 nM in test [11] (Homo sapiens, 786-0, 96 h).
For the molecule `CC[C@@]1(O)C(=O)OCc2c1cc1n(c2=O)Cc2c-1nc1cc(F)c(C)c(C3=CCN(C)CC3)c1c2CN` [Compound 6l], the IC50 in test [1] (setting [12]) was determined as 15 nM; in [2] (setting [13]), 73 nM; in the test with melanoma cells (A2058) (setting [14]), 16 nM; in test [3] (setting [15]) it was 16 nM; in [4] (setting [12]), 6 nM; in test [5] (setting [16]), 20 nM. Moreover, the IC50 was found to be 51 nM in test [6] (setting [17]); 18 nM in [7] (setting [18]); 29 nM in test [8] (setting [19]); 177 nM in [9] (setting [20]); 25 nM in test [10] (setting [21]); 38 nM in test [11] (setting [22]).
In the case of `CC[C@@]1(O)C(=O)OCc2c1cc1n(c2=O)Cc2c-1nc1cc3c(cc1c2CN)CC=C3` [Compound 5], the IC50 in [1] (setting [12]) was 4 nM; in test [2] (Homo sapiens, Calu-1, 96 h), 129 nM; with melanoma cells (A2058) (setting [14]), 7 nM; in [3] (Homo sapiens, MOLM-13, 96 h), 258 nM; in test [4] (setting [12]), 4 nM; in test [5] (setting [16]), 9 nM. The IC50 in test [6] (setting [17]) was 40 nM; in test [7] (setting [18]) it was 7 nM; in test [8] (setting [19]) it was over 1000 nM; in [9] (setting [20]), 218 nM; in [10] (setting [21]), 10 nM; in [11] (setting [22]), 16 nM.
`CC[C@@]1(O)C(=O)OCc2c1cc1n(c2=O)Cc2c-1nc1cc(F)c(C)c(C3=CCOCC3)c1c2CN` [Compound 6h]: the IC50 in test [1] (setting [12]) is 7 nM; in test [2] (setting [13]), 155 nM; in the test on melanoma cells (A2058) (setting [14]) it was 20 nM; in [3] (setting [15]), 31 nM; in [4] (setting [12]), 6 nM; in test [5] (setting [16]) it was 19 nM. Moreover, the IC50 in [6] (setting [17]) is 100 nM; in [7] (setting [18]) it was 14 nM; in test [8] (setting [19]) it was 48 nM; in test [9] (setting [20]), 102 nM; in test [10] (setting [21]), 28 nM; in test [11] (setting [22]), 36 nM.
For the molecule `CC[C@@]1(O)C(=O)OCc2c1cc1n(c2=O)Cc2c-1nc1cc3c(cc1c2CN)C(C)CO3` (single isomer, unassigned) [Compound 11a], the IC50 in [1] (setting [23]) came out at 4 nM; in test [2] (setting [23]), 131 nM; in the test on melanoma cells (A2058) (setting [23]) it was 5 nM; in [3] (setting [23]) it was 14 nM; in [4] (setting [23]), 2 nM; in test [5] (setting [23]), 6 nM. The IC50 in test [6] (setting [23]) is 23 nM; in test [7] (setting [23]) it was 3 nM; in test [8] (setting [23]), over 1000 nM; in [9] (setting [23]) it was 100 nM; in test [10] (setting [23]) it was 13 nM; in test [11] (setting [23]), 15 nM.
Turning to `CC[C@@]1(O)C(=O)OCc2c1cc1n(c2=O)Cc2c-1nc1cccc(OC)c1c2CN` [Compound 5a], the IC50 in [1] (setting [12]) came to 10 nM; in test [2] (setting [13]), 389 nM; in the test with melanoma cells (A2058) (setting [14]), 16 nM; in test [3] (setting [15]) it was 73 nM; in test [4] (setting [12]), 7 nM; in test [5] (setting [16]) it was 20 nM. In addition, the IC50 in [6] (setting [17]) is 154 nM; in test [7] (setting [18]), 12 nM; in test [8] (setting [19]), over 1000 nM; in [9] (setting [20]), 350 nM; in test [10] (setting [21]), 28 nM; in test [11] (setting [22]), 56 nM.
